The values that follow come from patent publication US8518988B2, “Polymorph of the hydrochloride of the (4-hydroxycarbamoyl-phenyl)-carbamic acid (6-dimethylamino methyl-2-naphthalenyl) ester” (Chemi SPA, priority 2010, dated 2013).

Data set [1] in a line: Comparative solubility in 0.9% sodium chloride solution (isotonic solution). The data set is classed as physicochemical. The following applies: 37° C.; for Solubility: 10 mg in 10 ml 0.9% sodium chloride solution, agitated 24 hours; for Relative solubility vs. form I: 0.9% sodium chloride solution, 24 hours. How it is done: As a matter of fact, a comparative experiment between form I of the compound (A) (monohydrate prepared as described in U.S. Pat. No. 7,329,689) and form II of compound (A), subject of the present invention, was carried out.
10 mg of compound (A) in crystalline form I were agitated in 10 ml of a 0.9% sodium chloride solution (isotonic solution) at 37° C. for 24 hours. The concentration of the product in liquid phase was measured at the end.
Table 1 indicates the obtained solubility data.

Data set [2] in a line: Stability test of crystalline form at 40° C., 75% humidity, analysed by PXRD. The data set is classed as physicochemical. The following applies: thin layer on Petri dish, samples after 2, 7 and 15 days. How it is done:
FIG. 5 describes the profile of the stability diffractograms of ITF 2357 of form II at 40° C., 75% relative humidity at different times. In particular, the first diffractogram from the bottom is performed at time 0, the second diffractogram from the bottom is performed after 2 days, the third diffractogram from the bottom is performed after 7 days and the fourth diffractogram from the bottom is performed after 15 days.
In detail, a sample of form II of ITF 2357 was deposited in a thin layer having a thickness of about 0.5 cm on a Petri dish and placed in an environment with a constant humidity of 75%, at a constant temperature of 40° C. for two weeks. Samples were taken after 2, 7 and 15 days and analysed through Powder X Ray Diffraction (PXRD). The results of such experiments were summarised in FIG. 5, where the diffractograms obtained from the samples of the various collections were indicated overlapped.

By Solubility is commonly meant how much of the substance goes into solution per volume. High values mean much dissolved substance, low ones little dissolved substance. Regarding `CN(C)Cc1ccc2cc(OC(=O)Nc3ccc(C(=O)NO)cc3)ccc2c1.Cl` [Form I, hydrochloride of the (4-hydroxycarbamoyl-phenyl)-carbamic acid (6-dimethylamino methyl-2-naphtalenyl) ester, reference compound], in data set [1], the Solubility came to 154 µg/mL and the “Relative solubility vs. form I” value is 1.00.
On to `CN(C)Cc1ccc2cc(OC(=O)Nc3ccc(C(=O)NO)cc3)ccc2c1.Cl` [Form II, hydrochloride of the (4-hydroxycarbamoyl-phenyl)-carbamic acid (6-dimethylamino methyl-2-naphtalenyl) ester], for which, in data set [1], the Solubility came out at 226 µg/mL. Also, the “Relative solubility vs. form I” value in data set [1] and in data set [1] (listed as form II) was 1.47 each time. Further, the “Stability of the crystalline form (PXRD)” value in data set [2] is “no modifications of the crystalline form was observed”.
